Results reported in paper PMC7753147, “High-throughput determination of protein affinities using unmodified peptide libraries in nanomolar scale” (iScience, 2020).
Where a SMILES comes first, the peptide text is derived from it.

Key:
[1] = target: T1, gephE (Rattus norvegicus, UniProt Q03555); experiment: TRIC displacement 12-point dose response against gephE-NN1D-Alexa647 complex; format: binding
T1 construct: gephE (residues 318-736) was generated; made in house
T1 sequence (Q03555 350-768): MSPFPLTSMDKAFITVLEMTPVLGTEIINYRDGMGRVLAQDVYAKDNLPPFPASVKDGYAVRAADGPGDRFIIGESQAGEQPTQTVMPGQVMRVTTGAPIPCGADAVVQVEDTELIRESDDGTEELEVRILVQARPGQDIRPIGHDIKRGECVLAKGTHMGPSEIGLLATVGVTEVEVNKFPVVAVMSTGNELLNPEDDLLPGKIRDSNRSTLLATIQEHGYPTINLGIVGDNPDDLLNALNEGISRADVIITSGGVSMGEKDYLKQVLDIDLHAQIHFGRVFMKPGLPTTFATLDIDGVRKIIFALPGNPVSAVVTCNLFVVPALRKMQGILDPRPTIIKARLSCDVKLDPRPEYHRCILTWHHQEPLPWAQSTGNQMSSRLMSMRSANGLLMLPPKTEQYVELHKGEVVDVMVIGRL

[2] = test system: gephE; experiment: µSPOT peptide microarray binding assay with recombinant gephE
[3] = test system: native geph; experiment: µSPOT peptide microarray binding assay with native geph from mouse brain lysate
[4] = test system: FL-geph; experiment: µSPOT peptide microarray binding assay with full-length geph
[5] = µSPOT peptide microarray, GlyRβ full positional scan, recombinant gephE, intensity normalised to wild-type sequence DLRSNDFSIVGSLPR (=1)
[6] = µSPOT peptide microarray, GlyRβ full positional scan, native geph from mouse brain lysate, intensity normalised to wild-type sequence DLRSNDFSIVGSLPR (=1)
[7] = µSPOT peptide microarray, GlyRβ full positional scan, intensity normalised to wild-type sequence DLRSNDFSIVGSLPR (=1)
[8] = µSPOT full positional scan of GlyRβ 15-mer DLRSNDFSIVGSLPR, intensity normalised to wild-type sequence (= 1)
[9] = µSPOT full positional scan of GlyRβ 15-mer DLRSNDFSIVGSLPR, native geph, intensity normalised to wild-type sequence (= 1)

Compound	Ki [1]	gephE Binding Intensity [norm.] [2, 5]	Native geph Binding Intensity [norm.] [3, 6]	Fl-geph Binding Intensity [norm.] [4, 7]	gephE Binding Intensity [norm.] [2, 8]	Native geph Binding Intensity [norm.] [3, 9]	Fl-geph Binding Intensity [norm.] [4, 8]
CC[C@H](C)[C@H](NC(=O)[C@H](CO)NC(=O)[C@H](Cc1ccc(O)cc1)NC(=O)[C@H](CC(=O)O)NC(=O)[C@H](CC(N)=O)NC(=O)[C@H](CO)NC(=O)[C@H](CCCNC(=N)N)NC(=O)[C@H](CC(C)C)NC(=O)[C@@H](N)CC(=O)O)C(=O)N[C@H](C(=O)NCC(=O)N[C@@H](CO)C(=O)N[C@@H](CC(C)C)C(=O)N1CCC[C@H]1C(=O)N[C@@H](CCCNC(=N)N)C(N)=O)C(C)C [GlyRβ_Full_Positional_Scan_129] (H-DLRSNDYSIVGSLPR-NH2)	185 µM						
CC[C@H](C)[C@H](NC(=O)[C@H](CO)NC(=O)[C@H](Cc1c[nH]c2ccccc12)NC(=O)[C@H](CC(=O)O)NC(=O)[C@H](CC(N)=O)NC(=O)[C@H](CO)NC(=O)[C@H](CCCNC(=N)N)NC(=O)[C@H](CC(C)C)NC(=O)[C@@H](N)CC(=O)O)C(=O)N[C@H](C(=O)NCC(=O)N[C@@H](CO)C(=O)N[C@@H](CC(C)C)C(=O)N1CCC[C@H]1C(=O)N[C@@H](CCCNC(=N)N)C(N)=O)C(C)C [GlyRβ_Full_Positional_Scan_128] (H-DLRSNDWSIVGSLPR-NH2)	31.9 µM						
DLRINDFSIVGSLPR [GlyRβ_Full_Positional_Scan_063]		0.92 norm.	1.05 norm.	0.91 norm.			
DLRANDFSIVGSLPR [GlyRβ_Full_Positional_Scan_061]		0.98 norm.	1.12 norm.	0.86 norm.			
DLRYNDFSIVGSLPR [GlyRβ_Full_Positional_Scan_069]		0.96 norm.	0.93 norm.	0.83 norm.			
DLRDNDFSIVGSLPR [GlyRβ_Full_Positional_Scan_070]		0.95 norm.	1.34 norm.	1.09 norm.			
SLRSNDFSIVGSLPR [GlyRβ_Full_Positional_Scan_015]		1.04 norm.	0.69 norm.	0.91 norm.			
DLRSEDFSIVGSLPR [GlyRβ_Full_Positional_Scan_091]		0.96 norm.	0.96 norm.	1 norm.			
DLVSNDFSIVGSLPR [GlyRβ_Full_Positional_Scan_046]		0.94 norm.	1.47 norm.	1.27 norm.			
DLISNDFSIVGSLPR [GlyRβ_Full_Positional_Scan_043]		0.9 norm.	1.69 norm.	1.35 norm.			
DLRSPDFSIVGSLPR [GlyRβ_Full_Positional_Scan_085]		0.95 norm.	0.86 norm.	0.85 norm.			

More lines, now with the values ahead:

Ki [1]	gephE Binding Intensity [norm.] [2, 5]	Native geph Binding Intensity [norm.] [3, 6]	Fl-geph Binding Intensity [norm.] [4, 7]	gephE Binding Intensity [norm.] [2, 8]	Native geph Binding Intensity [norm.] [3, 9]	Fl-geph Binding Intensity [norm.] [4, 8]	Compound
16.6 µM							CC[C@H](C)[C@H](NC(=O)[C@@H](NC(=O)[C@H](Cc1ccccc1)NC(=O)[C@H](CC(=O)O)NC(=O)[C@H](CC(N)=O)NC(=O)[C@H](CO)NC(=O)[C@H](CCCNC(=N)N)NC(=O)[C@H](CC(C)C)NC(=O)[C@@H](N)CC(=O)O)[C@@H](C)O)C(=O)N[C@H](C(=O)NCC(=O)N[C@@H](CO)C(=O)N[C@@H](CC(C)C)C(=O)N1CCC[C@H]1C(=O)N[C@@H](CCCNC(=N)N)C(N)=O)C(C)C [GlyRβ_Full_Positional_Scan_156] (H-DLRSNDFTIVGSLPR-NH2)
42.4 µM							CC[C@H](C)[C@H](NC(=O)CNC(=O)[C@H](Cc1ccccc1)NC(=O)[C@H](CC(=O)O)NC(=O)[C@H](CC(N)=O)NC(=O)[C@H](CO)NC(=O)[C@H](CCCNC(=N)N)NC(=O)[C@H](CC(C)C)NC(=O)[C@@H](N)CC(=O)O)C(=O)N[C@H](C(=O)NCC(=O)N[C@@H](CO)C(=O)N[C@@H](CC(C)C)C(=O)N1CCC[C@H]1C(=O)N[C@@H](CCCNC(=N)N)C(N)=O)C(C)C [GlyRβ_Full_Positional_Scan_142] (H-DLRSNDFGIVGSLPR-NH2)
22.4 µM							CC(C)C[C@H](NC(=O)[C@H](CO)NC(=O)[C@H](Cc1ccccc1)NC(=O)[C@H](CC(=O)O)NC(=O)[C@H](CC(N)=O)NC(=O)[C@H](CO)NC(=O)[C@H](CCCNC(=N)N)NC(=O)[C@H](CC(C)C)NC(=O)[C@@H](N)CC(=O)O)C(=O)N[C@H](C(=O)NCC(=O)N[C@@H](CO)C(=O)N[C@@H](CC(C)C)C(=O)N1CCC[C@H]1C(=O)N[C@@H](CCCNC(=N)N)C(N)=O)C(C)C [GlyRβ_Full_Positional_Scan_164] (H-DLRSNDFSLVGSLPR-NH2)
21.4 µM							CC(C)C[C@H](NC(=O)[C@@H](N)CC(=O)O)C(=O)N[C@@H](CCCNC(=N)N)C(=O)N[C@@H](CO)C(=O)N[C@@H](CC(N)=O)C(=O)N[C@@H](CC(=O)O)C(=O)N[C@@H](Cc1ccccc1)C(=O)N[C@@H](CO)C(=O)N[C@H](C(=O)N[C@H](C(=O)NCC(=O)N[C@@H](CO)C(=O)N[C@@H](CC(C)C)C(=O)N1CCC[C@H]1C(=O)N[C@@H](CCCNC(=N)N)C(N)=O)C(C)C)C(C)C [GlyRβ_Full_Positional_Scan_166] (H-DLRSNDFSVVGSLPR-NH2)
	0.41 norm.	0.21 norm.	0.5 norm.				DLRSNDFSIVPSLPR [GlyRβ_Full_Positional_Scan_205, GlyR β 414-428 variant G424P]
	0.57 norm.	0.16 norm.	0.62 norm.				DLRSNDFSRVGSLPR [GlyRβ_Full_Positional_Scan_172, GlyR β 414-428 variant I422R]
	0.67 norm.	0.53 norm.	0.63 norm.				DLRSNDCSIVGSLPR [GlyRβ_Full_Positional_Scan_137, GlyR β 414-428 variant F420C]
				0.36 norm.	0.17 norm.	0.33 norm.	DLRSNDFSIVMSLPR [GlyRβ_Full_Positional_Scan_218, GlyR β 414-428 variant G424M]
	0.68 norm.	0.27 norm.	0.62 norm.				DLRSNDFSIWGSLPR [GlyRβ_Full_Positional_Scan_188, GlyR β 414-428 variant V423W]
				0.87 norm.	1.56 norm.	1.37 norm.	DLRSNDFSIVGSLPT [GlyRβ_Full_Positional_Scan_296]
	0.79 norm.	0.34 norm.	0.84 norm.				DLRSNDFSIYGSLPR [GlyRβ_Full_Positional_Scan_189, GlyR β 414-428 variant V423Y]
				0.94 norm.	0.93 norm.	1 norm.	DLRSNDFSIVGSIPR [GlyRβ_Full_Positional_Scan_243]
				0.66 norm.	0.32 norm.	0.74 norm.	DLRSNDFSIVGSLLR [GlyRβ_Full_Positional_Scan_264]
				1 norm.	1 norm.	1 norm.	DLRSNDFSIVGSLPR [GlyRβ_Full_Positional_Scan_235]
	0.7 norm.	0.27 norm.	0.85 norm.				DLRSNDFYIVGSLPR [GlyRβ_Full_Positional_Scan_149, GlyR β 414-428 variant S421Y]
